# According to ChEMBL document CHEMBL1201862, “PubChem BioAssay data set” (2004):
# Active and inactive are the calls of the source.
# How the values were obtained:
# [1] = molecular target: T1, RNA-binding protein pos-1 (Caenorhabditis elegans, UniProt G5EF15); experiment: disruptors of C. elegans POS-1 RNA interaction – biochemical, fluorescence polarization, dose response (AID 1964);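 further: purified POS-1 fused to maltose binding protein made in E. coli; potency of compounds blocking POS-1 binding to fluorescent RNA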
# T1 sequence (G5EF15 whole entry): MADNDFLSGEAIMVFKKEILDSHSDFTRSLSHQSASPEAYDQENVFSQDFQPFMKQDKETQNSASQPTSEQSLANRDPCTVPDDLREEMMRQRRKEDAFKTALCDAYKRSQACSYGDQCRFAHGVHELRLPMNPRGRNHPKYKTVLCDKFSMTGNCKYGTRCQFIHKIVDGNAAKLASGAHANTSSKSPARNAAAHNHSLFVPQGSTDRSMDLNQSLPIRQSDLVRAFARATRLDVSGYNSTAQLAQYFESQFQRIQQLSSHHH
# [2] = molecular target: T2, Zinc finger protein mex-5 (Caenorhabditis elegans, UniProt Q9XUB2); experiment: potency of MEX-5 RNA-binding blockers – biochemical, C. elegans, fluorescence polarization, dose response (AID 1960)
# T2 sequence (Q9XUB2 whole entry): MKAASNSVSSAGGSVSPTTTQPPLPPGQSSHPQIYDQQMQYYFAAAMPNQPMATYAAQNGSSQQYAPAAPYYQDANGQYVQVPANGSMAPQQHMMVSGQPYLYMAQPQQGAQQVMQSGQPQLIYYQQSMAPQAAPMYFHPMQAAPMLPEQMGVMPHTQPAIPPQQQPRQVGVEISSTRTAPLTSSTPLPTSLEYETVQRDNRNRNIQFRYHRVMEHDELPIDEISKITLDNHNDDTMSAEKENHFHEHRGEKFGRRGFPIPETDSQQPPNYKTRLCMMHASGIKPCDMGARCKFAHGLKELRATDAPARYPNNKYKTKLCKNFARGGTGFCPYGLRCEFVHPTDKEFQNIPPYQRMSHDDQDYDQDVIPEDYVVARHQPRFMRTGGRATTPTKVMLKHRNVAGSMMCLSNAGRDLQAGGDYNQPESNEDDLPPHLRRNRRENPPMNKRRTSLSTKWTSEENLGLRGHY
# [3] = Luminescence Cell-Based Dose Response HTS to Identify Activators of Luciferase Translation or Activity in H4 […] Cells. [Related pubchem assays: 1829 (Project Summary), 1814 (Primary HTS)]; assay type: functional
# H4 = experiment: Luminescence Cell-Based Dose Response HTS to Identify Activators of 5'UTR Stem-Loop Driven Prion Protein mRNA Translation in H4 Neuroglioblastoma Cells. [Related pubchem assays: 1829 (Project Summary), 1814 (Primary HTS)]; assay type: functional; details: Homo sapiens
# [4] = luciferase reporter signal suppression in cells – H4 neuroglioma cells, luminescence, dose response (AID 1990); assay type: functional, cell-based
# [5] = Luminescence Cell-Based Dose Response HTS to Identify Inhibitors of 5'UTR Stem-Loop Driven Prion Protein mRNA Translation in H4 Neuroglioblastoma Cells. [Related pubchem assays: 1827 (Project Summary), 1813 (Primary HTS)]; assay type: functional
# [6] = alpha-synuclein stem-loop luciferase translation blockers – H4 neuroglioma cells, luminescence, confirmation (AID 1988); assay type: functional, cell-based
# [7] = Luminescence Cell-Based Dose Retest to Confirm Inhibitors of Cancer Stem Cells. [Related pubchem assays (depositor defined):AID2717, AID2721]; assay type: functional; details: Homo sapiens
# Nonstructural protein 1 = Nonstructural protein 1 (Influenza A virus, UniProt Q194T2); assay type: functional, Influenza A virus (A/California/07/2009(H1N1))
# Nonstructural protein 1, sequence (Q194T2 whole entry): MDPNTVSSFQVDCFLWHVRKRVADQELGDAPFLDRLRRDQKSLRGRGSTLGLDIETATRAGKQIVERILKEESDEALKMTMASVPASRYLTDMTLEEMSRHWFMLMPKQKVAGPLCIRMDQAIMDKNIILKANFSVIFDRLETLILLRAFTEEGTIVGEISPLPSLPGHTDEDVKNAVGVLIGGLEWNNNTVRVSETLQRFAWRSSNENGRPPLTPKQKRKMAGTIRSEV
# INS1 = experiment: INS-1E survival protection against cytokine death – cell-based, luminescence, retest, dose response (AID 449756); assay type: functional; details: Rattus norvegicus;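 further: cell death triggered by IL-1 beta plus TNF-alpha plus IFN-gamma mixture; protective hits raise ATP signal compared with cytokine alone wells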
# [8] = reduction of Shn3 3'UTR-driven luciferase in osteoblasts – cell-based, Clone20 osteoblasts, firefly luciferase, cherry-picked, dose response (AID 624132); assay type: functional;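 further: firefly luciferase luminescence from reporter carrying the Shn3 3'UTR in osteoblasts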
# [9] = loss of viability in HepG2 cells – cell-based, CellTiter-Glo, cherry-picked, cytotoxicity control for Shn3 inhibitor project, dose response (AID 624134); assay type: functional
# [10] = non-specific 3'UTR reporter inhibition in Clone20-Shn3RL – cell-based, Renilla luciferase, cherry-picked, counter-screen for Shn3 inhibitor project, dose response (AID 624133); assay type: functional
# Cytochrome P450 2C19 = Cytochrome P450 2C19 (Homo sapiens, UniProt P33261); experiment: Cytochrome panel assay with activity outcomes. Panel member name: p450-cyp2c19 Compounds with AC50 equal or less than 10 uM are considered active; assay type: functional; details: read-out: AC50
# Cytochrome P450 2C19, sequence (P33261 whole entry): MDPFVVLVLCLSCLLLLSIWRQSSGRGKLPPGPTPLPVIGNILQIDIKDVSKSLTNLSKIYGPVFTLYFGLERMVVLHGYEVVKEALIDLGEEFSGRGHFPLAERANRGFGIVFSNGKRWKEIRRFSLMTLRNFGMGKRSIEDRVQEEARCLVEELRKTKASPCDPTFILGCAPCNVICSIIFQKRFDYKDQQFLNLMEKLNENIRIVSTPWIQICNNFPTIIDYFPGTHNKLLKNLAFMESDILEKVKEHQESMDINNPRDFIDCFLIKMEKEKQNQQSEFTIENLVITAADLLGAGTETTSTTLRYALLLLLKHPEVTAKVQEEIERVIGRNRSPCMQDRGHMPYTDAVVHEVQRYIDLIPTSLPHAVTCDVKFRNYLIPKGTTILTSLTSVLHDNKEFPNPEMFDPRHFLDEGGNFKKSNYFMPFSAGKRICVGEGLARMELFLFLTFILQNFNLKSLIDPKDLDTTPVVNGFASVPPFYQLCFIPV
# Cytochrome P450 2C9 = Cytochrome P450 2C9 (Homo sapiens, UniProt P11712)
# Cytochrome P450 2C9, sequence (P11712 whole entry): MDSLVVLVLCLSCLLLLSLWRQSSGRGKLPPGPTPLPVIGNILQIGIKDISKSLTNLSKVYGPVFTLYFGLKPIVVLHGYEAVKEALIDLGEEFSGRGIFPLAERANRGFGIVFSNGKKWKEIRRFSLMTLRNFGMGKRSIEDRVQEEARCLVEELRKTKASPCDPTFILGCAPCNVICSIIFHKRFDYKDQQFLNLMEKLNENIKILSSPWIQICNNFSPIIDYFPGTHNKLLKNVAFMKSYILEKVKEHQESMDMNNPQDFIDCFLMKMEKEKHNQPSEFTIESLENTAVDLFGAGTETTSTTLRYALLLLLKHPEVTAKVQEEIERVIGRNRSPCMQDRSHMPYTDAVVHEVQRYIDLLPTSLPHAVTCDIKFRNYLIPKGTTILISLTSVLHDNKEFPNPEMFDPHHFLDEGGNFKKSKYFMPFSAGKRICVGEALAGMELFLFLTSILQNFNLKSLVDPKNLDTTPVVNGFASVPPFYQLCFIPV
# [11] = viability of PTEN-deleted HCT116 cells – cell-based, HCT116 PTEN knockout, dose response (AID 1047); assay type: functional;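 further: HCT116 colon tumor cells with PTEN knocked out; cells exposed to compound for 60 hours before readout; potency for loss of cell viability measured by luminescence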
# [12] = viability of HCT116 lacking mutant beta-catenin – cell-based, human colon tumor, dose response (AID 1045); assay type: functional;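 further: HCT116 colon tumor cells with beta catenin knocked out; cells exposed to compound for 60 hours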
# [13] = molecular target: T3, Replicative DNA helicase DnaB (Mycobacterium tuberculosis, UniProt P9WMR3); experiment: DnaB intein splicing inhibitors, dose response, biochemical, cell-free fluorescence (AID 449749); assay type: functional
# T3 sequence (P9WMR3 whole entry): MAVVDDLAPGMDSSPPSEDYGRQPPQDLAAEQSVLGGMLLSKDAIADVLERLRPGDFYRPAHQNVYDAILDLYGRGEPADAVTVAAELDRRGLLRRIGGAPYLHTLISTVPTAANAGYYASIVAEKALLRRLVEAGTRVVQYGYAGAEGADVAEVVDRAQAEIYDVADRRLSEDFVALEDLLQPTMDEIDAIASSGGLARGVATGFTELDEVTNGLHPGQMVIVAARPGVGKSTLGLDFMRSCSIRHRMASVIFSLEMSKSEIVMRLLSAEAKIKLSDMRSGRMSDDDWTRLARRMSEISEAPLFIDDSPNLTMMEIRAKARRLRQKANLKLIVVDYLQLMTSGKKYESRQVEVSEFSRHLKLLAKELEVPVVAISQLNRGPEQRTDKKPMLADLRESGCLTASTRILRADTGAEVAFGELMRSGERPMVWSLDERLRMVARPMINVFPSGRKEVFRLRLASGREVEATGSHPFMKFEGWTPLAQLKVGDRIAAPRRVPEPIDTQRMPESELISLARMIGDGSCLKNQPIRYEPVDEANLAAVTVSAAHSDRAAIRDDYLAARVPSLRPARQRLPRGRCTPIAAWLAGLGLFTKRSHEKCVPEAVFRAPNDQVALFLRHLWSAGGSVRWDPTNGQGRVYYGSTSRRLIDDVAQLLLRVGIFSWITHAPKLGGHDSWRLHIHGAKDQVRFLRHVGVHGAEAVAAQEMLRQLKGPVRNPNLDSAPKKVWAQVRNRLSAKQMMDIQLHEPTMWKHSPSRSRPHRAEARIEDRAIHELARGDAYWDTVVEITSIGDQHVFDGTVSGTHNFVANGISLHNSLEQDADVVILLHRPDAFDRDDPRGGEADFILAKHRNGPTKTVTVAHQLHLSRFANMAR
# Protein RecA = molecular target: T4, Protein RecA (Mycobacterium tuberculosis, UniProt P9WHJ3); experiment: Fluorescence Cell-Free Homogeneous Dose Retest to Identify Inhibitors of RecA-Intein Splicing Activity. [Related pubchem assays (depositor defined):AID2097, AID2223, AID489010, AID492950]; assay type: functional
# T4 sequence (P9WHJ3 whole entry): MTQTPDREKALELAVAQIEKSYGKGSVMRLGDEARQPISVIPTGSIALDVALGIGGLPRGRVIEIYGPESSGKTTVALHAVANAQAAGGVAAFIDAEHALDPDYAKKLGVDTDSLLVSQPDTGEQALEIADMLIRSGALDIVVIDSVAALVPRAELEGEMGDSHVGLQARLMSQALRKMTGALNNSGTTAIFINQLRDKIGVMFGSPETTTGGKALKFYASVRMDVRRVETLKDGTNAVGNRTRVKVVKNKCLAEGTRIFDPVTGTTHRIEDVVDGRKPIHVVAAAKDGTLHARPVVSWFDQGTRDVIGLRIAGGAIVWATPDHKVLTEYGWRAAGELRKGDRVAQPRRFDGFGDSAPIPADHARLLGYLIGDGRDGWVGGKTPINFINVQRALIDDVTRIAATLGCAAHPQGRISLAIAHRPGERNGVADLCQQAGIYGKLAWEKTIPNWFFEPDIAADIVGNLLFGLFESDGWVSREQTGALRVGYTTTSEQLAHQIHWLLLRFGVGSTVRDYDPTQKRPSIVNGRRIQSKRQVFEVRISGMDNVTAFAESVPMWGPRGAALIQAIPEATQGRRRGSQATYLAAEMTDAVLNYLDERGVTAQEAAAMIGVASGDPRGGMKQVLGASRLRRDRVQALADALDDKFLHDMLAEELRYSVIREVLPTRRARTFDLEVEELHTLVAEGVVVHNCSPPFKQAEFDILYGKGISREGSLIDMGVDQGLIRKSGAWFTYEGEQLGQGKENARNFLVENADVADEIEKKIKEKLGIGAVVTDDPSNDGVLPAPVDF
# [14] = microbe, parasite or virus in culture; assay type: functional; details: Mycobacterium tuberculosis
smiles,measurement,setting,value
COc1ccc(C2C(C#N)=C(N)OC3=C2C(=O)CC(C)(C)C3)cc1 (configuration not stated),EC50,[1],69.7 µM (active)
same,EC50,[2],> 300 µM (not active)
CCOc1ccccc1N/C=C(\C#N)c1nc2ccccc2n1C,EC50,[3],> 120 µM (not active)
same,EC50,H4,> 120 µM (not active)
COc1ccc(/C=C2\SC(=S)N(CCCC(=O)NC3CCCC3)C2=O)cc1OC,EC50,[1],57.5 µM (active)
same,EC50,[2],55.7 µM (inconclusive)
CC(=O)c1ccc(Oc2ncnc3sccc23)cc1,EC50,[3],9.03 µM (active)
same,EC50,H4,33.2 µM (active)
COc1ccc(-c2nc(C#N)c(NCc3ccco3)o2)cc1,EC50,[3],31.9 µM (active)
same,EC50,H4,7.92 µM (active)
COc1ccccc1C(CCNCc1ccc(N(C)C)cc1)c1ccc(OC(C)C)cc1 (configuration not stated),EC50,[4],> 60 µM (not active)
same,EC50,[5],> 120 µM (not active)
same,EC50,[6],7.66 µM (active)
same,AC50,[7],5.31 µM (active)
same,IC50,Nonstructural protein 1,8.29 µM (active)
same,AC50,INS1,7.11 µM (active)
same,AC50,[8],6.48 µM (active)
same,AC50,[9],12.5 µM (active)
same,AC50,[10],12 µM (active)
CCOC(=O)N1CCN(C2=Nc3cccc4cccc2c34)CC1,EC50,[1],> 300 µM (not active)
same,EC50,[2],60.2 µM (active)
CCCCCc1cc(=O)oc2c(C(CCN3CCCC3)c3ccc(N(C)C)cc3)c(OC)cc(OC)c12 (configuration not stated),IC50,Nonstructural protein 1,6.41 µM (active)
O=C(Nc1nnc(SCc2c(Cl)cccc2Cl)s1)C1CCCO1 (configuration not stated),AC50,Cytochrome P450 2C19,14.1 µM (inconclusive)
same,AC50,Cytochrome P450 2C9,inconclusive
Cc1ccc(C(=O)NC(=S)Nc2ccc3c(c2)OCCO3)c(C)c1,AC50,Cytochrome P450 2C19,17.8 µM (inconclusive)
same,AC50,Cytochrome P450 2C9,inconclusive
COc1ccc(OC)c(N2C(=O)NC(=O)/C(=C\c3c[nH]c4ccccc34)C2=O)c1,EC50,[1],> 300 µM (not active)
same,EC50,[2],> 300 µM (not active)
N=c1c2c(-c3ccccc3)c(-c3ccccc3)n(Cc3ccco3)c2ncn1Cc1ccccc1,EC50,[11],1.68 µM (active)
same,EC50,[12],1.35 µM (active)
same,AC50,[13],3.08 µM (active)
same,EC50,Protein RecA,6.7 µM (active)
same,AC50,INS1,6.08 µM (active)
COc1ccc(C2Oc3ccccc3C3=C2C(c2cccs2)n2ncnc2N3)cc1 (configuration not stated),CC50,[14],16.8 µM (active)
same,EC50,[11],8.88 µM (active)
same,EC50,[12],7.97 µM (active)
Cc1ccc(C)n1-c1ccc(C(=O)O)cc1,EC50,[1],13.9 µM (active)
same,EC50,[2],20.5 µM (inconclusive)
Cc1ccc(-n2nc(C)c(/C=N/NC(=O)c3ccc(O)cc3O)c2O)cc1,EC50,[1],76.9 µM (active)
same,EC50,[2],22 µM (active)
same,IC50,Nonstructural protein 1,4.44 µM (active)
CC1=C/C(=N\Nc2ccccc2[N+](=O)[O-])CC(C)(C)C1,IC50,Nonstructural protein 1,14.9 µM (active)
COc1ccc(Cc2nnc(N/N=C/c3ccccc3O)nc2O)cc1OC,AC50,[7],3.66 µM (active)
same,IC50,Nonstructural protein 1,1.42 µM (active)
same,AC50,INS1,0.834 µM (active)
COc1cc(/C=N/NC(=O)CN2CC(c3ccccc3)CC2=O)ccc1OC(=O)N(C)C (configuration not stated),AC50,Cytochrome P450 2C19,22.4 µM (inconclusive)
same,AC50,Cytochrome P450 2C9,inconclusive
